Active and inactive are the calls of the source. No cut-off for these calls is given here.
How the values were obtained:
Influenza A virus [1] = assay: Antiviral activity against Influenza A virus (A/PR 8/34 (H1N1)) infected in MDCK cells assessed as reduction in virus-induced cytopathic effect measured after 72 hrs by microscopic analysis; type: functional, organism-based; conditions: A/Puerto Rico/8/1934(H1N1)
Influenza A virus [2] = assay: Antiviral activity against Influenza A virus (A/PR 8/34 (H1N1)) infected in MDCK cells assessed as reduction in virus-induced cytopathic effect measured after 72 hrs by MTS assay; type: functional, organism-based; conditions: A/Puerto Rico/8/1934(H1N1)
[3] = Cytotoxicity against MDCK cells assessed as change in cell morphology measured after 72 hrs by microscopic analysis; type: cell-based, Canis lupus familiaris; conditions: dog
[4] = Cytotoxicity against MDCK cells assessed as reduction in cell viability measured after 72 hrs by MTS assay; type: cell-based, Canis lupus familiaris; conditions: dog
[5] = Selectivity index, ratio of CC50 for MDCK cells to EC50 for antiviral activity against Influenza A virus (A/Puerto Rico/8/1934(H1N1)) infected in MDCK cells; type: toxicity, cell-based; conditions: dog, read-out: Ratio CC50/EC50
Trypsin (Homo sapiens) [6] = target: T1, Trypsin (Homo sapiens) (UniProt P07477+P07478+P35030); assay: Inhibition of human trypsin using Boc-Gln-Ala-Arg-AMC as substrate preincubated for 15 mins followed by substrate addition and measured for 60 mins by fluorescence assay; type: protein assay; conditions: time 75.0 min
[7] = target: T2, Transmembrane protease serine 11D (Homo sapiens) (UniProt O60235); assay: Inhibition of recombinant human N-terminal His-tagged HAT (Ala42 to Ile418 residues) expressed in mouse NSO cells using Boc-Gln-Ala-Arg-AMC as substrate preincubated for 15 mins followed by substrate addition and measured for 60 mins by fluorescence assay; conditions: time 75.0 min
T2 sequence (whole entry): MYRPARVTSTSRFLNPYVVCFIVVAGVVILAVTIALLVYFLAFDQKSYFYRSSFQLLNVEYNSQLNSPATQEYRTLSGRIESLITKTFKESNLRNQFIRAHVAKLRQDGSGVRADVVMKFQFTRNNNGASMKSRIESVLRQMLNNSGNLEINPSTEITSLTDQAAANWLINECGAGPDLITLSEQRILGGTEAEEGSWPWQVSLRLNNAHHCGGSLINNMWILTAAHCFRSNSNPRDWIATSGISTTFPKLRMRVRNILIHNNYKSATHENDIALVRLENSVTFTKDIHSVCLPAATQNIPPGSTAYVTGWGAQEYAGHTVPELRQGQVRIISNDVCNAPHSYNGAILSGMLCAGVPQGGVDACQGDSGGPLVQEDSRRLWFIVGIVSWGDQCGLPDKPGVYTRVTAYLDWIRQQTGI

[8] = target: Cathepsin B (Homo sapiens) (UniProt P07858); assay: Inhibition of human liver cathepsin B using Z-Phe-Arg-AMC as substrate preincubated for 15 mins followed by substrate addition and measured for 60 mins by fluorescence assay; conditions: time 75.0 min
[9] = target: T3, Cathepsin F (Homo sapiens) (UniProt Q9UBX1); assay: Inhibition of recombinant human cathepsin F expressed in baculovirus infected insect cells using Z-Phe-Arg-AMC as substrate preincubated for 15 mins followed by substrate addition and measured for 60 mins by fluorescence assay; conditions: time 75.0 min
T3 sequence (whole entry): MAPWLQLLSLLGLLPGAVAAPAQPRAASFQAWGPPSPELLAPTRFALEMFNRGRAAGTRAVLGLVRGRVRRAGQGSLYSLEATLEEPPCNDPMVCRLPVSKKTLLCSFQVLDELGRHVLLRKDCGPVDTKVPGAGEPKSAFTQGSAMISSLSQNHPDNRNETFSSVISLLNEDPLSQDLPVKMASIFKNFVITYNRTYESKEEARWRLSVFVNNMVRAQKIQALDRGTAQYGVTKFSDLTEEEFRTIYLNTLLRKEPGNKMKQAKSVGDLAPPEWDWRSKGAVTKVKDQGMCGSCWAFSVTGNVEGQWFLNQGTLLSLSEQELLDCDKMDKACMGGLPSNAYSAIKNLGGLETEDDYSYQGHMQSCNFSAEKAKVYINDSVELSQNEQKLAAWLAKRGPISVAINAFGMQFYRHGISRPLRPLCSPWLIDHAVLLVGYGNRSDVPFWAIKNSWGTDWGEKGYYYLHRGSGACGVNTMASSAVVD

[10] = target: Procathepsin L (Homo sapiens) (UniProt P07711); assay: Inhibition of human liver cathepsin L using Z-Phe-Arg-AMC as substrate preincubated for 15 mins followed by substrate addition and measured for 60 mins by fluorescence assay; conditions: time 75.0 min
Sequence of Procathepsin L (Homo sapiens) (P07711 114-333 limits assumed): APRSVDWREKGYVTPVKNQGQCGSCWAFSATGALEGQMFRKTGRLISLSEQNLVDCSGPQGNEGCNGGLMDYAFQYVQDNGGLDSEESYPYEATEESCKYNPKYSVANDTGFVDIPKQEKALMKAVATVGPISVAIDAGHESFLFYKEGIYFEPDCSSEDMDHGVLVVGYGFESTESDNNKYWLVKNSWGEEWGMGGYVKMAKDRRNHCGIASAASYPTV

Trypsin (Homo sapiens) [11] = target: T1, Trypsin (Homo sapiens); assay: Inhibition of human trypsin at 1 uM using Boc-Gln-Ala-Arg-AMC as substrate preincubated for 15 mins followed by substrate addition and measured for 60 mins by fluorescence assay relative to control; type: protein assay; conditions: time 75.0 min
[12] = target: T2, Transmembrane protease serine 11D (Homo sapiens); assay: Inhibition of recombinant human N-terminal His-tagged HAT (Ala42 to Ile418 residues) expressed in mouse NSO cells at 1 uM using Boc-Gln-Ala-Arg-AMC as substrate preincubated for 15 mins followed by substrate addition and measured for 60 mins by fluorescence assay relative to control; conditions: time 75.0 min
Influenza A virus [13] = assay: Antiviral activity against Influenza A virus (A/PR 8/34 (H1N1)) infected in MDCK cells assessed as reduction in viral RNA synthesis at 20 uM treated at 1 hr post-infection by RT-qPCR analysis; type: functional, organism-based; conditions: A/Puerto Rico/8/1934(H1N1)
[14] = target: Cathepsin B (Homo sapiens) (UniProt P07858); assay: Inhibition of human liver cathepsin B at 1 uM using Z-Phe-Arg-AMC as substrate preincubated for 15 mins followed by substrate addition and measured for 60 mins by fluorescence assay; conditions: time 75.0 min
[15] = target: Procathepsin L (Homo sapiens) (UniProt P07711); assay: Inhibition of human liver cathepsin L at 1 uM using Z-Phe-Arg-AMC as substrate preincubated for 15 mins followed by substrate addition and measured for 60 mins by fluorescence assay; conditions: time 75.0 min
[16] = target: T3, Cathepsin F (Homo sapiens); assay: Inhibition of recombinant human cathepsin F expressed in baculovirus infected insect cells at 1 uM using Z-Phe-Arg-AMC as substrate preincubated for 15 mins followed by substrate addition and measured for 60 mins by fluorescence assay relative to control; conditions: time 75.0 min
Influenza A virus (H1N1) [17] = assay: Antiviral activity against Influenza A virus (H1N1) A/Virginia/ATCC3/2009 infected in MDCK cells assessed as reduction in virus-induced cytopathic effect measured after 72 hrs by microscopic analysis; type: functional, organism-based
Influenza A virus (H1N1) [18] = assay: Antiviral activity against Influenza A virus (H1N1) A/Virginia/ATCC3/2009 infected in MDCK cells assessed as reduction in virus-induced cytopathic effect measured after 72 hrs by MTS assay; type: functional, organism-based
Influenza A virus H3N2 [19] = assay: Antiviral activity against Influenza A virus H3N2 A/HK/7/87 infected in MDCK cells assessed as reduction in virus induced cytopathic effect after 72 hrs by microscopy based method; type: functional, organism-based
Influenza A virus H3N2 [20] = assay: Antiviral activity against Influenza A virus H3N2 A/HK/7/87 infected in MDCK cells assessed as reduction in virus induced cytopathic effect after 72 hrs by MTS assay; type: functional, organism-based
Influenza B virus [21] = assay: Antiviral activity against Influenza B virus B/HK/5/72 infected in MDCK cells assessed as reduction in virus induced cytopathic effect after 72 hrs by microscopy based method; type: functional, organism-based
Influenza B virus [22] = assay: Antiviral activity against Influenza B virus B/HK/5/72 infected in MDCK cells assessed as reduction in virus induced cytopathic effect after 72 hrs by MTS assay; type: functional, organism-based
Influenza A virus [23] = assay: Antiviral activity against Influenza A virus (A/PR 8/34 (H1N1)) infected in human Calu-3 cells assessed as reduction in virus-induced cytopathic effect measured after 72 hrs by microscopic analysis; type: functional, organism-based; conditions: A/Puerto Rico/8/1934(H1N1), Calu-3, 72 h
Influenza A virus [24] = assay: Antiviral activity against Influenza A virus (A/PR 8/34 (H1N1)) infected in human Calu-3 cells assessed as reduction in virus-induced cytopathic effect measured after 72 hrs by MTS assay; type: functional, organism-based; conditions: A/Puerto Rico/8/1934(H1N1), Calu-3, 72 h
[25] = Cytotoxicity against HELF cells; type: cell-based; conditions: human
[26] = Cytotoxicity against human HeLa cells; type: cell-based
[27] = Selectivity index, ratio of MCC for HELF cells to EC50 for antiviral activity against Influenza A virus (A/PR 8/34 (H1N1)) infected in human Calu-3 cells; type: toxicity, cell-based; conditions: HELF cells (MCC) and Calu-3 cells (EC50), read-out: Selectivity Index
[28] = Selectivity index, ratio of MCC for human HeLa cells to EC50 for antiviral activity against Influenza A virus (A/PR 8/34 (H1N1)) infected in human Calu-3 cells; type: toxicity, cell-based; conditions: HeLa cells (MCC) and Calu-3 cells (EC50), read-out: Selectivity Index
Influenza A virus [29] = assay: Antiviral activity against Influenza A virus (A/PR 8/34 (H1N1)) infected in MDCK cells assessed as reduction in viral RNA synthesis at 50 uM treated at 1 hr post-infection by RT-qPCR analysis; type: functional, organism-based; conditions: A/Puerto Rico/8/1934(H1N1)
Influenza A virus [30] = assay: Antiviral activity against Influenza A virus (A/PR 8/34 (H1N1)) clone 1 infected in MDCK cells assessed as reduction in virus-induced cytopathic effect measured after 72 hrs by microscopic analysis; type: functional, organism-based; conditions: A/Puerto Rico/8/1934(H1N1)
Influenza A virus [31] = assay: Antiviral activity against Influenza A virus (A/PR 8/34 (H1N1)) clone 1 infected in MDCK cells assessed as reduction in virus-induced cytopathic effect measured after 72 hrs by MTS assay; type: functional, organism-based; conditions: A/Puerto Rico/8/1934(H1N1)
Influenza A virus [32] = assay: Antiviral activity against Influenza A virus (A/PR 8/34 (H1N1)) clone 2 infected in MDCK cells assessed as reduction in virus-induced cytopathic effect measured after 72 hrs by microscopic analysis; type: functional, organism-based; conditions: A/Puerto Rico/8/1934(H1N1)
Influenza A virus [33] = assay: Antiviral activity against Influenza A virus (A/PR 8/34 (H1N1)) clone 2 infected in MDCK cells assessed as reduction in virus-induced cytopathic effect measured after 72 hrs by MTS assay; type: functional, organism-based; conditions: A/Puerto Rico/8/1934(H1N1)
[34] = target: Hemagglutinin (Influenza A virus (A/Puerto Rico/8/1934(H1N1))) (UniProt P03452); assay: Inhibition of Influenza A virus (A/PR 8/34 (H1N1)) hemagglutinin transfected in human HeLa cells assessed as reduction in low pH-indued polykaryon formation at 100 uM preincubated for 15 mins followed by pH 5.2 buffer addition and measured after 5 mins by giemsa staining based microscopic analysis; type: cell-based; conditions: time 20.0 min
Sequence of Hemagglutinin (Influenza A virus (A/Puerto Rico/8/1934(H1N1))) (P03452 whole entry): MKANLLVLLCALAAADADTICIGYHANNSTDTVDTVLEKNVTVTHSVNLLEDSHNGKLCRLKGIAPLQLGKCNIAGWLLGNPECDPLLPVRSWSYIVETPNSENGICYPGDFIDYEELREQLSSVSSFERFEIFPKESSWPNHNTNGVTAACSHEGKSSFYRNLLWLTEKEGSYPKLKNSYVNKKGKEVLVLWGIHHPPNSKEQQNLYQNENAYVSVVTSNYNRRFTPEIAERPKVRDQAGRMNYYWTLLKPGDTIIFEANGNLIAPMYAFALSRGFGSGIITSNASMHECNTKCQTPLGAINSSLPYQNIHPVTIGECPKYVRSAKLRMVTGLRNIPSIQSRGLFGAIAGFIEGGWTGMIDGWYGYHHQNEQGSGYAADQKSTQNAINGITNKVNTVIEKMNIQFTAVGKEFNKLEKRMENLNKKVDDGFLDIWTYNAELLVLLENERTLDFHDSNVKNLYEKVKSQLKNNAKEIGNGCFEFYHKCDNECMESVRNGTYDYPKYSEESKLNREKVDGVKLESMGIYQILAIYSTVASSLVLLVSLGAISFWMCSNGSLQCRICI

[35] = target: Hemagglutinin (Influenza A virus (A/Puerto Rico/8/1934(H1N1))) (UniProt P03452); assay: Inhibition of Influenza A virus (A/PR 8/34 (H1N1)) hemagglutinin transfected in human HeLa cells assessed as reduction in low pH-indued polykaryon formation preincubated for 15 mins followed by pH 5.2 buffer addition and measured after 5 mins by giemsa staining based microscopic analysis; type: cell-based; conditions: time 20.0 min
[36] = target: Hemagglutinin (Influenza A virus (A/Puerto Rico/8/1934(H1N1))) (UniProt P03452); assay: Inhibition of Influenza A virus (A/PR 8/34 (H1N1)) hemagglutinin infected in MDCK cells assessed as reduction in virus binding to cell surface; type: cell-based

## COC(=O)C[C@H](NC(=O)OCc1ccccc1)C(=O)N(C1CC1)C1(C(=O)NCc2ccccc2)CCN(Cc2ccccc2)CC1
Influenza A virus [1]
  EC50: 2000 nM
Influenza A virus [2]
  EC50: 1800 nM
[3]
  MCC at 72 h: 20 µM
[4]
  CC50 at 72 h: 8100 nM
[5]
  selectivity ratio: 40
Trypsin (Homo sapiens) [6]
  inhibition: inactive
[7]
  inhibition: inactive
[8]
  inhibition: inactive
[9]
  inhibition: inactive
[10]
  inhibition: inactive

## CN(C)C(=O)COC(=O)Cc1ccc(OC(=O)c2ccc(NC(=N)N)cc2)cc1
Trypsin (Homo sapiens) [11]
  inhibition: 90%
[12]
  inhibition: 90%

## CCN(CC)CCCC(C)Nc1ccnc2cc(Cl)ccc12 (stereo unspecified)
Influenza A virus [13]
  Activity: Active

## CC(C)C[C@H](NC(=O)[C@@H]1C[C@H]1C(=O)O)C(=O)NCCCCNC(=N)N
[14]
  inhibition: Active
[15]
  inhibition: Active
[16]
  inhibition: 50%

## COC(=O)C[C@H](NC(=O)OC(C)(C)C)C(=O)N(Cc1ccc(F)cc1)C1(C(=O)NCc2ccccc2)CCN(Cc2ccccc2)CC1
Influenza A virus [1]
  EC50: 1900 nM
Influenza A virus [2]
  EC50: 2700 nM
[3]
  MCC at 72 h: > 100 µM
[4]
  CC50 at 72 h: > 100000 nM
[5]
  selectivity ratio: 18
Influenza A virus (H1N1) [17]
  Activity: inactive
Influenza A virus (H1N1) [18]
  Activity: inactive
Influenza A virus H3N2 [19]
  Activity: inactive
Influenza A virus H3N2 [20]
  Activity: inactive
Influenza B virus [21]
  Activity: inactive
Influenza B virus [22]
  Activity: inactive
Influenza A virus [23]
  EC50: 1800 nM
Influenza A virus [24]
  EC50: 3000 nM
[25]
  MCC: 100 µM
[26]
  MCC: 100 µM
[27]
  selectivity ratio: ≥ 30
[28]
  selectivity ratio: ≥ 30
Influenza A virus [29]
  Activity: Active
Influenza A virus [30]
  EC50: > 100000 nM
Influenza A virus [31]
  EC50: > 100000 nM
Influenza A virus [32]
  EC50: > 100000 nM
Influenza A virus [33]
  EC50: > 100000 nM
[34]
  inhibition: 100%
[35]
  inhibition: Dose-dependent effect
[36]
  inhibition: inactive
Trypsin (Homo sapiens) [6]
  inhibition: inactive
[7]
  inhibition: inactive
[8]
  inhibition: inactive
[9]
  inhibition: inactive
[10]
  inhibition: inactive

Reference: ChEMBL document CHEMBL4680243, “N-benzyl 4,4-disubstituted piperidines as a potent class of influenza H1N1 virus inhibitors showing a novel mechanism of hemagglutinin fusion peptide interaction” (Eur J Med Chem, 2020)
